Reference: ChEMBL document CHEMBL5303304, “EUbOPEN Chemogenomics Library - IncuCyte” (2023)

What was measured:
Assay type in all cases: toxicity, cell-based
U2OS = assay: Incucyte cell viability with U2OS; conditions: human, 10 µM, compound concentration 10 uM
Fibroblast = assay: Incucyte cell viability with human fibroblast; conditions: 10 µM, compound concentration 10 uM
HEK-293T = assay: Incucyte cell viability with HEK293T; conditions: human, 10 µM, compound concentration 10 uM
Note: unitless GR value; below 1 slowed growth and below 0 cell loss.

Row | Structure (SMILES) | Growth Rate (U2OS; 0 h, replicate number 1) | Growth Rate (U2OS; 6 h, replicate number 1) | Growth Rate (U2OS; 6 h, replicate number 2) | Growth Rate (U2OS; 12 h, replicate number 1) | Growth Rate (U2OS; 18 h, replicate number 1) | Growth Rate (U2OS; 18 h, replicate number 2) | Growth Rate (U2OS; 24 h, replicate number 1) | Growth Rate (Fibroblast; 18 h, replicate number 1) | Growth Rate (Fibroblast; 24 h, replicate number 1) | Growth Rate (Fibroblast; 24 h, replicate number 2) | Growth Rate (HEK-293T; 0 h, replicate number 2) | Growth Rate (HEK-293T; 6 h, replicate number 1) | Growth Rate (HEK-293T; 6 h, replicate number 2) | Growth Rate (HEK-293T; 12 h, replicate number 1) | Growth Rate (HEK-293T; 12 h, replicate number 2) | Growth Rate (HEK-293T; 18 h, replicate number 1) | Growth Rate (HEK-293T; 18 h, replicate number 2) | Growth Rate (HEK-293T; 24 h, replicate number 1) | Growth Rate (HEK-293T; 24 h, replicate number 2) | Growth Rate (Fibroblast; 12 h, replicate number 1) | also measured
1 | Oc1c(CN2CCCC2)cc(COCc2ccccc2)c2cccnc12 | 0.25 | 0.93 | 0.91 | 0.55 | 0.93 | 0.56 | 0.79 | 0.96 | 0.83 | 0.6 | -0.99 | 0.34 | 0.05 | -0.04 | -0.05 | -0.09 | -0.21 | -0.18 | -0.25 |  | Growth Rate (U2OS; 12 h, replicate number 2): 0.58; Growth Rate (U2OS; 24 h, replicate number 2): 0.54; Growth Rate (Fibroblast; 0 h, replicate number 1): 0.87
2 | CCCc1c(OCCCOc2ccc(OCC(=O)O)cc2)ccc(C(C)=O)c1O |  | 0.97 |  | 0.84 |  |  |  | 0.6 | 0.94 |  | -0.76 |  |  |  | 0.94 |  | 0.97 |  |  | 0.74 | Growth Rate (Fibroblast; 0 h, replicate number 2): -0.08; Growth Rate (Fibroblast; 6 h, replicate number 1): 0.58; Growth Rate (Fibroblast; 12 h, replicate number 2): 0.87
3 | CN[C@@H]1CC[C@@H](c2ccc(Cl)c(Cl)c2)c2ccccc21.Cl | -0.9 | 0.8 | 0.35 | 0.75 | 0.81 | 0.41 | 0.85 | -0.26 | -0.06 | -0.2 | -1 | 0 | -0.43 | 0.01 | -0.18 | 0.17 | -0.04 | 0.2 | 0.07 | -0.24 | Growth Rate (U2OS; 0 h, replicate number 2): 0.34; Growth Rate (U2OS; 12 h, replicate number 2): 0.04; Growth Rate (U2OS; 24 h, replicate number 2): 0.45; Growth Rate (Fibroblast; 6 h, replicate number 1): -0.46; Growth Rate (Fibroblast; 12 h, replicate number 2): -0.45; Growth Rate (Fibroblast; 18 h, replicate number 2): -0.33
4 | OC(c1ccc(-c2ccc(CN3CCN(Cc4ccncc4)CC3)cc2)c(F)c1)(C(F)(F)F)C(F)(F)F | 0.44 | 0.85 | 0.88 | 0.84 | 0.93 | 0.78 |  | 0.24 | 0.39 | -0.02 | -0.93 | -0.1 | 0.22 | -0.03 | 0.08 | 0.02 | 0.23 | 0.09 | 0.29 | 0.07 | Growth Rate (U2OS; 24 h, replicate number 2): 0.71; Growth Rate (Fibroblast; 0 h, replicate number 1): 0.65; Growth Rate (Fibroblast; 6 h, replicate number 1): -0.31; Growth Rate (Fibroblast; 6 h, replicate number 2): -0.55; Growth Rate (Fibroblast; 12 h, replicate number 2): -0.38; Growth Rate (Fibroblast; 18 h, replicate number 2): -0.18
5 | CN[C@@H](C)C(=O)N[C@H](C(=O)N1CCC[C@H]1C(=O)N[C@H]1c2ccccc2C[C@H]1OCC#CC#CCO[C@@H]1Cc2ccccc2[C@@H]1NC(=O)[C@@H]1CCCN1C(=O)[C@@H](NC(=O)[C@H](C)NC)C1CCCCC1)C1CCCCC1 | 0.76 | 0.89 | 0.83 |  | 0.87 | 0.86 | 0.89 | 0.75 | 0.63 | 0.43 | -0.94 | 0.13 | 0.46 | -0.41 | -0.22 | -0.17 | 0.01 | -0.12 | 0.02 | 0.87 | Growth Rate (U2OS; 12 h, replicate number 2): 0.86; Growth Rate (Fibroblast; 18 h, replicate number 2): 0.57
6 | COc1cccc(Cn2cc(C(=O)Nc3ccc(C)c(S(=O)(=O)N4CCOCC4)c3)c(-c3ccc(C)cc3)n2)c1 |  |  |  | 0.96 |  |  |  | 0.89 |  |  | -0.05 | 0.76 |  |  |  | 0.99 |  | 0.96 |  | 0.7 | Growth Rate (Fibroblast; 0 h, replicate number 2): 0.55; Growth Rate (Fibroblast; 6 h, replicate number 1): 0.43; Growth Rate (Fibroblast; 6 h, replicate number 2): 0.77
7 | CCN(C(=O)CO)[C@H]1CN(/C(=N\C#N)Nc2cccc(OC(F)F)c2)N=C1c1ccc(Cl)c(Cl)c1 |  | 1 |  |  | -0.52 |  | -0.49 |  |  | 0.98 | -0.6 |  | 0.79 |  |  | 0.96 |  | 0.91 |  |  | Growth Rate (Fibroblast; 0 h, replicate number 2): 0.47; Growth Rate (Fibroblast; 6 h, replicate number 2): 0.31; Growth Rate (Fibroblast; 12 h, replicate number 2): 0.8
